These results are taken from PubChem BioAssay AID179 (DTP/NCI, 2004).

The subject of the test is CEM cells HIV-1 protection, formazan growth assay. Description: NCI AIDS Antiviral Assay. The conditions noted are these: for pIC50: measured here: growth of uninfected CEM cells. The essentials: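 CEM (human) cells, HIV-1 infected vs uninfected, 5-point dosing, formazan growth read-out. Retest threshold 50% protection.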

pEC50, pIC50: −log10 of the molar value. Calls of active or inactive are those of the source.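 Rule for the calls: active = compounds giving half or more protection of infected cells from virus-caused growth loss, again on retest; inactive = the rest.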

Consider `O=C1OC(OC/C(Br)=C(/Br)COC2OC(=O)C(Cl)=C2Cl)C(Cl)=C1Cl` (stereo unspecified), for which the pEC50 was less than 3.70 and the pIC50 was 5.46.
For `O=S1(=O)C[C@H](NCc2ccccc2)[C@H](NCc2ccccc2)C1`, in that order: less than 3.70 and 3.97.
In the same order, the values of `O=C(NC(C(F)(F)F)(C(F)(F)F)P(=O)(c1ccccc1)c1ccccc1)C(C(F)(F)F)C(F)(F)F` are less than 3.70 and 4.93.
In the same order, the values of `N#Cc1[nH]c(=O)n(-c2cccc3ccccc23)c1N` are less than 3.70 and less than 3.70.
With `O=c1[nH]c2ccccc2c(O)c1Cc1ccccc1`, the pEC50 is less than 3.70 and the negative-log IC50 (pIC50) was less than 3.70.
As for `CC(C)(C)C(=O)Nc1ccccc1C(=O)C12CCC3(CCOCc4ccccc4)C=CCN(C(=O)O1)C32` (stereo unspecified), the pEC50 was 4.81 and the pIC50 was 4.37.
In the same order, the values of `Cc1ccc(S(=O)(=O)OC2=C/C(=N\c3onc(C)c3C)c3ccccc3C2=O)cc1` are less than 3.70 and 5.51.
With `Cn1c(=O)c2[nH]cnc2n(CC(N)=O)c1=O`, the pEC50 was less than 3.25 and the negative-log IC50 (pIC50) was less than 3.25.
On to `COc1ccc(C2COc3c(ccc(OC)c3OC)C2=O)cc1OC` (stereo unspecified), for which the outcome was inactive.
Consider `CC(C)[Si](OC1=CCCCCC12C(=O)N(C)c1ccccc12)(C(C)C)C(C)C` (stereo unspecified), for which the pEC50 is less than 3.70 and the pIC50 was 4.47.
`COc1cc2c(c3c1C=CCO3)C(=O)c1ccccc1C2=O`: the outcome was inactive.
Consider `CSc1cc(Br)ccc1-n1c(C(=O)c2ccccc2)c(SC)n(-c2ccccc2)c1=O`, for which the pEC50 is less than 3.70 and the negative logarithm of the IC50 (pIC50) was 4.84.
For `O=C(CC(O)(C(F)(F)F)C(F)(F)F)c1ccc(Cl)cc1`, in that order: less than 3.70 and less than 3.70.
Turning to `CC(C)(C)C1=CC(C)(n2[nH]c(=O)n(-c3ccccc3)c2=O)C=C(C(C)(C)C)C1=O`, the pEC50 is less than 3.70 and the pIC50 was 4.01.
As to `C#CCOCC12C=CC(O1)C1COC(=O)C12` (stereo unspecified), the pEC50 is less than 3.70 and the pIC50 is less than 3.70.
For the compound `CC(C)(C)C1CC[C@H]2c3c([nH]c4ccc(Br)cc34)[C@H]3C(=O)N(c4ccccc4)C(=O)[C@H]3[C@H]2C1` (stereo partly specified), the pEC50 is less than 5.14 and the pIC50 is less than 5.14.
Turning to `C/C(Cl)=N\OC(=O)Nc1ccc(C)cc1`, the pEC50 was less than 3.70 and the negative logarithm of the IC50 (pIC50) was 4.73.
For `O=C(CCCNC(=O)OCc1ccccc1)OCc1ccc2c(c1)C(=O)c1ccccc1C2=O`, in that order: less than 3.70 and less than 3.70.
Turning to `CCN(N=O)C1C2(CCCC2)NC(=O)C12CCCC2` (stereo unspecified), the result was inactive.
Take `CCOC(=O)/C=C/c1ccc2c(c1)OC(c1ccc(O)c(OC)c1)C(CO)O2` (stereo unspecified): the pEC50 is less than 3.89 and the negative logarithm of the IC50 (pIC50) was 4.61.
Regarding `COC(=O)/C=C/c1c(CC=C(C)C)ncn1C`, the pEC50 was less than 3.27 and the pIC50 is 5.46.
In the same order, the values of `CCN(CC)CC1CCCCN1CC(=O)N1CC(C)C(=O)Nc2ccccc21` (stereo unspecified) are 4.46 and 3.60.
In the same order, the values of `O=C(NCCc1ccccn1)c1ccc2cc(C(=O)N3CC(CCl)c4ccc([N+](=O)[O-])cc43)[nH]c2c1` (stereo unspecified) are less than 3.70 and 4.13.
In the same order, the values of `Cc1cc(C)n(C2OC(CO)C(O)C(O)C2O)c(=S)c1C#N` (stereo unspecified) are less than 3.70 and less than 3.70.
Regarding `CCN(CC)P(=O)(c1ccc2c(c1)OCCOCCOCCOCCO2)N(CC)CC`, the pEC50 is less than 3.70 and the pIC50 is less than 3.70.
As for `O=c1[nH]c(NCCCCCO)nc2nc[nH]c12`, the pEC50 is less than 3.70 and the pIC50 is less than 3.70.
Turning to `C[N+](C)(C)C1CC([N+](C)(C)C)C2c3ccccc3C21` (stereo unspecified), the result was inactive.
For `CCOC(=O)N1CCC2(CC1)C[C@@](C(C)=O)(c1ccccc1)C(C)O2` (stereo partly specified), the pEC50 was less than 3.70 and the negative-log IC50 (pIC50) is less than 3.70.
`CCOC(=O)c1c(C)c(C(C)=O)c2ccccn12`: the pEC50 is less than 3.84 and the pIC50 was 4.02.
In the same order, the values of `Cc1ccc(Cc2n[nH]c(=O)n2/N=C\CC/C=N\n2c(Cc3ccc(C)cc3)n[nH]c2=O)cc1` are less than 3.70 and 3.92.
In the same order, the values of `Nc1sccc1S(=O)(=O)c1ccsc1N` are less than 3.70 and 4.06.
For `CC1(C)C2CCC(N)(C2)C1N` (stereo unspecified), in that order: less than 3.70 and less than 3.70.
`COc1ccc(C(=O)Nc2ccc(S(=O)(=O)c3ccc(NC(=O)c4ccccc4SSc4ccccc4C(=O)Nc4ccc(S(=O)(=O)c5ccc(NC(=O)c6ccc(OC)cc6)cc5)cc4)cc3)cc2)cc1`: the pEC50 was 4.78 and the pIC50 was 3.82.
Take `COc1ccc(C2Oc3cc(OC)c(O)c(C)c3[C@H]2C)cc1` (stereo partly specified): the pEC50 is less than 4.34 and the pIC50 was 4.51.
On to `OCC1O[C@H](O[C@@H]2CCCN3CC(O)C(O)[C@@H]23)C(O)C(O)C1O` (stereo partly specified), for which the pEC50 is less than 2.80 and the pIC50 was less than 2.80.
Take `C=C(Cl)CSC(=S)N1CCOCC1`: the result was inactive.
As to `CCOP(=O)(OCC)/C(C#N)=C/c1ccc([N+](=O)[O-])cc1`, the pEC50 was less than 3.09 and the negative logarithm of the IC50 (pIC50) was 3.24.
Consider `O=P(N1CC1)(N1CC1)N1CC2CCC(CC2)C1`, for which the pEC50 is less than 3.70 and the pIC50 was 5.79.
In the case of `c1ccc(-c2nnc(-c3nn(-c4ccccc4)c4nc5ccccc5nc34)o2)cc1`, the outcome was inactive.
For the compound `CC1(C)COC2(c3ccccc3)N(c3ccccc3)C(=O)ON12` (stereo unspecified), the pEC50 was less than 3.70 and the pIC50 was less than 3.70.
For the compound `Cc1ccc([N+](=O)[O-])cc1P(=O)(O)c1cc([N+](=O)[O-])ccc1C`, the pEC50 is less than 3.70 and the pIC50 was less than 3.70.
Turning to `C[N+](C)(C)CC1CCCCCCCCCCC1=O` (stereo unspecified), the pEC50 was 4.22 and the pIC50 was 3.83.
As for `Cc1cn(CCCCCCOC(=O)NC(CCCNC(N)=O)C(=O)O)c(=O)[nH]c1=O` (stereo unspecified), the pEC50 was less than 3.70 and the pIC50 was less than 3.70.
For the compound `O=C1c2c(ccc3c2CCCC3)CC1Cc1ccc2c(c1)CCCC2` (stereo unspecified), the pEC50 is less than 3.70 and the pIC50 is less than 3.70.
Consider `CCN(Cc1cccc(S(=O)(=O)[O-])c1)c1ccc(C(=C2C=CC(=[N+](CC)Cc3cccc(S(=O)(=O)O)c3)C=C2)c2ccccc2)cc1`, for which the negative logarithm of the EC50 (pEC50) is 3.83 and the negative logarithm of the IC50 (pIC50) was 3.73.
For `CCOC(=O)C(Cc1cccc2ccccc12)S(=O)(=O)c1ccc(C)cc1` (stereo unspecified), in that order: less than 4.18 and 4.73.
`COC1=C(C(=O)O)P(C)(=O)CC1` (stereo unspecified): the pEC50 is less than 3.67 and the pIC50 is less than 3.67.
In the case of `Cc1[nH]n(-c2ncc(C(=O)O)c(=O)[nH]2)c(=O)c1CCO`, the pEC50 is less than 3.70 and the pIC50 is less than 3.70.
For `CC(C)=CCNc1ncnc2c1ncn2CCC#N`, the pEC50 was less than 3.70 and the pIC50 is less than 3.70.
In the case of `COc1ccc2c(c1OC)CN(C)CCc1cc3c(c(OC)c1C(=O)C2)OCO3`, the outcome was inactive.
In the case of `COc1ccc(-c2coc3cc(O)cc(O)c3c2=O)cc1`, the pEC50 is less than 3.70 and the pIC50 was 4.90.
For `CC(C)CCC[C@@H](C)C1CCC2[C@@H]3CC=C4C[C@@H](OS(=O)(=O)O)CC[C@]4(C)C3CC[C@@]21C` (stereo partly specified), the result was active.
Turning to `O=C1C2CC=CCC2C(=O)N1n1c(Cc2ccccc2)n[nH]c1=O` (stereo unspecified), the pEC50 is less than 3.70 and the negative-log IC50 (pIC50) was less than 3.70.
On to `NC1=NS(=O)(=O)Nc2nc(-c3ccccc3)[nH]c21`, for which the pEC50 was less than 4.70 and the pIC50 was less than 4.70.
`CCN1c2nc3ccccc3nc2N(CC)c2nc3ccccc3nc21`: the pEC50 is less than 3.70 and the negative logarithm of the IC50 (pIC50) is 4.38.
In the same order, the values of `CC1(Br)CN(C(=S)Nc2ccccc2)C1=O` (stereo unspecified) are less than 3.70 and 4.01.
The compound `O=c1sc2c(s1)-c1sc(=O)sc1SS2` had a pEC50 of less than 4.11 and a pIC50 of 4.29.
For the compound `O=C(CN(Cc1ccccc1)Cc1ccccc1)N1CCc2c([nH]c3ccccc23)C1c1cccnc1` (stereo unspecified), the pEC50 is less than 5.25 and the pIC50 was less than 5.25.
Turning to `CCOC(=O)C(CC(CO)(C(C)=O)C(=O)OCC)C(C)=O` (stereo unspecified), the pEC50 is less than 3.70 and the pIC50 was 4.65.
For `O=C1CSC(=Nc2ccc(F)cc2F)N1Cc1cccs1`, in that order: less than 3.97 and 4.39.
As for `COc1ccc2nc(C(=O)c3ccccc3)c(C)cc2c1`, the pEC50 was less than 4.59 and the pIC50 was 4.76.
On to `O=C(CCc1ccc(O)cc1)NCCc1cccc(OCc2ccccc2)c1`, for which the pEC50 was less than 3.70 and the pIC50 was 4.58.
Regarding `COC(=O)C1C=NNC1C(=O)OC` (stereo unspecified), the result was inactive.
`C=C(C)[C@@]1(O)O[C@H]2C[C@@]3(C)OC(=CC3=O)/C(C)=C\[C@@H]3OC(=O)[C@@]1(C)[C@H]32`: the pEC50 is less than 3.70 and the pIC50 is 5.28.
For `CCCCCCCCCC=C(c1cc(Br)cc(C(=O)O)c1OC)c1cc(Br)cc(C(=O)O)c1OC`, in that order: less than 2.92 and 4.12.
In the same order, the values of `CCOc1ccc(-n2c(=O)c(N=Nc3ccccc3Cl)c(O)n(-c3ccc(Br)cc3)c2=S)cc1` are less than 3.76 and less than 3.76.
`CN(C)CCO/N=C1/C=C2CC[C@H]3[C@@H]4CC[C@H](O)[C@@]4(C)CC[C@@H]3[C@@]2(C)CC1`: the pEC50 was less than 3.70 and the pIC50 is 5.22.
In the same order, the values of `C=C[C@@H]1c2ccccc2C=C[C@]12C=CC(=O)CC2` are less than 4.24 and 4.66.
`CC(C)(C)OC(=O)C1=C2C=C(O)C=CC2(C)N(Cc2ccccc2)C1=N` (stereo unspecified): the pEC50 is less than 5.70 and the pIC50 is 6.13.
For `CCCCOB(OCCCC)OCCCC`, the pEC50 is less than 3.70 and the negative-log IC50 (pIC50) is less than 3.70.
With `COc1ccc(C(O)CC(O)(C(F)(F)F)C(F)(F)F)cc1` (stereo unspecified), the pEC50 was less than 3.70 and the pIC50 is less than 4.00.
Turning to `O=C1CC(CC(=O)C2CCCCC2=O)CC(=O)N1` (stereo unspecified), the outcome was inactive.
In the case of `CCCCCCCCCCC/C=C(/C(=O)CCCO[Si](C)(C)C(C)(C)C)C(=O)OC`, the pEC50 is less than 3.70 and the negative logarithm of the IC50 (pIC50) is less than 3.70.
